Data from PMC4774911, “Biochemical Screening of Five Protein Kinases from Plasmodium falciparum against 14,000 Cell-Active Compounds” (PLoS ONE, 2016).
Several values for one entry are separate records, joined by “and”; a condition that tells them apart may be missing. Identical values can stand only once.

Columns and labels:
Assay in all cases: biochemical
Design in all cases: endogenous in cells; host or cells: K562 cell extract; species or system K562 (extract); replicate k of n = 2 (each experiment ID is one independent experiment; two experiment IDs per compound)
Conditions in all cases: read-out: KDapp
CSNK2A2 = CSNK2A2 (Homo sapiens, UniProt P19784)
Sequence of CSNK2A2 (P19784 whole entry): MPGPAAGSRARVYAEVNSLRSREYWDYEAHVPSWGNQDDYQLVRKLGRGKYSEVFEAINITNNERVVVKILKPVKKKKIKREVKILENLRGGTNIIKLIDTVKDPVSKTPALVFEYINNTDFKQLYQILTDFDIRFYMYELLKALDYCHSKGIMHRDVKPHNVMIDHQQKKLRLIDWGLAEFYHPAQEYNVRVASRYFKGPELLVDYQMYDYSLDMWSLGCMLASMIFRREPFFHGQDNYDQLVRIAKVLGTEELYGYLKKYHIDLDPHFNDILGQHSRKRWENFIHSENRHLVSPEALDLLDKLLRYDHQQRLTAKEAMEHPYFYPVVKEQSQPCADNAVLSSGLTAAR

AAK1 = AAK1 (Homo sapiens, UniProt Q2M2I8)
Sequence of AAK1 (Q2M2I8 whole entry): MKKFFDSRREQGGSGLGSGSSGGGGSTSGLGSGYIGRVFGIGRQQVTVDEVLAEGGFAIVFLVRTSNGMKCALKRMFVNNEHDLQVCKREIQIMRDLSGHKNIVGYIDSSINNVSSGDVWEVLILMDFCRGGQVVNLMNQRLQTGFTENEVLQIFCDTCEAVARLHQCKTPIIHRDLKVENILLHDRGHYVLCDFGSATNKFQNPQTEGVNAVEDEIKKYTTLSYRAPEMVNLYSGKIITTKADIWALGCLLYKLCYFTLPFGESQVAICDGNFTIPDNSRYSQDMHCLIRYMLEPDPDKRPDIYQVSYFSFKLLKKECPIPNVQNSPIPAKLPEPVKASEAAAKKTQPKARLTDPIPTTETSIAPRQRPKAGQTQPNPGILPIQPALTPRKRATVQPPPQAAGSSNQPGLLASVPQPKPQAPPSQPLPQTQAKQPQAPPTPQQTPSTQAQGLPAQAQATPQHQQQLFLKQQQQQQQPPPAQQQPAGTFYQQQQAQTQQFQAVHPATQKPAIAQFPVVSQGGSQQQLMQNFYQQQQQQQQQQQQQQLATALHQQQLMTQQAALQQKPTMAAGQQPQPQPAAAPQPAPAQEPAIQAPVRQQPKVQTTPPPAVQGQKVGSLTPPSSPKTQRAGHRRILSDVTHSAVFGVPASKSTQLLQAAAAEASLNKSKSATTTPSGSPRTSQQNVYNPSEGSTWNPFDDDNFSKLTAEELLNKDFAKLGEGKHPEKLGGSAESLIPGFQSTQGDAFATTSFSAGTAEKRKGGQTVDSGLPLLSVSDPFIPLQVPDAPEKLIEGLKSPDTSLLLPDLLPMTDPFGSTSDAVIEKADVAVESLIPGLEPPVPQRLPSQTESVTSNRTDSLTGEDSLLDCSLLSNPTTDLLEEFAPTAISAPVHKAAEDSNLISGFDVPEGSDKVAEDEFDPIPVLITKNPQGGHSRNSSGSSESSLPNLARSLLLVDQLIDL

BMPR2 = target: T1, BMPR2 (Homo sapiens, UniProt Q13873)
T1 sequence (Q13873 1-1038): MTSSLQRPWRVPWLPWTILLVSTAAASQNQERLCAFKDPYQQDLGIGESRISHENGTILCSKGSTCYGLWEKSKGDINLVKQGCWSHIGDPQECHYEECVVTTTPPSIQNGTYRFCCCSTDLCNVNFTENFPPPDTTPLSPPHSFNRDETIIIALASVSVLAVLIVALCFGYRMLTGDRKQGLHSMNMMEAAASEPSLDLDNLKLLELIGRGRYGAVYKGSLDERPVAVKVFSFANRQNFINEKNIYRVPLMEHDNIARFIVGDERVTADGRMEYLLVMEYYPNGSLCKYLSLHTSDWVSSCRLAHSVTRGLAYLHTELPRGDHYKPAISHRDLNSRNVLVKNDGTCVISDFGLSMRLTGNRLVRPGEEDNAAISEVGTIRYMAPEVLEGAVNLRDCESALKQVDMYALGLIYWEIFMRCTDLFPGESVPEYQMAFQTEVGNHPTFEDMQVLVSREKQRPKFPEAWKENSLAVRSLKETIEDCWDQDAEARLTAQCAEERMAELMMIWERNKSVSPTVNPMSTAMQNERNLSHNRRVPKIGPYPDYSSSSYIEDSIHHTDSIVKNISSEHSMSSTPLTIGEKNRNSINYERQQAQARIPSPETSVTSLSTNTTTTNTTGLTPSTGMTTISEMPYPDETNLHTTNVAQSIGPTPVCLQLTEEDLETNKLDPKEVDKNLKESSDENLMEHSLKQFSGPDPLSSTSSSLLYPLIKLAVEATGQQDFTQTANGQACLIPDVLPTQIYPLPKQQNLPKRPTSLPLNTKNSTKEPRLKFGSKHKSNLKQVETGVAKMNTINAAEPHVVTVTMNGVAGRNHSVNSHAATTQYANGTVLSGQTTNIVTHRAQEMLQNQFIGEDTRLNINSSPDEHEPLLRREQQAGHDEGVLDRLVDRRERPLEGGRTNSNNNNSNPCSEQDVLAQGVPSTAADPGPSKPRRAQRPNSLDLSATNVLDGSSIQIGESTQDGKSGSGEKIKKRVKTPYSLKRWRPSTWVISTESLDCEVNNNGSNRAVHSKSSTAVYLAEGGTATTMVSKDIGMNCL

BTK = BTK (Homo sapiens, UniProt Q06187)
Sequence of BTK (Q06187 whole entry): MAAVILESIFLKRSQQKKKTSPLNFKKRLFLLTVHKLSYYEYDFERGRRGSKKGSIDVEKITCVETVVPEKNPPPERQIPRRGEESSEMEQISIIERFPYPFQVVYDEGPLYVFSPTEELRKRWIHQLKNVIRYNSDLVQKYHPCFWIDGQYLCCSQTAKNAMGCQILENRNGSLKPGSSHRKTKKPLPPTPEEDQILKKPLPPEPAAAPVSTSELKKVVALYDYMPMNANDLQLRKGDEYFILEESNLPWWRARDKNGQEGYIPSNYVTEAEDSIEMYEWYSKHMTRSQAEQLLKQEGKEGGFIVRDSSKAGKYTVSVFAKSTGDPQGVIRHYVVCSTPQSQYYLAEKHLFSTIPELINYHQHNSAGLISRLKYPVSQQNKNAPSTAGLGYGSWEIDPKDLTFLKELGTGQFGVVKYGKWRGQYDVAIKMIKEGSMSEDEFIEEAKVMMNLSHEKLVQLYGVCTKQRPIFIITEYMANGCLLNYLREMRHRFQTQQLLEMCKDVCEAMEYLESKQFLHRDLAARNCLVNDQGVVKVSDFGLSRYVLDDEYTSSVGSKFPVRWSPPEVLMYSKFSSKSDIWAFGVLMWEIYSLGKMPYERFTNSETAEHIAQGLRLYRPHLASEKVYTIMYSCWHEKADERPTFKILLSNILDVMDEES

CDC2 = CDC2 (Homo sapiens, UniProt P06493)
Sequence of CDC2 (P06493 whole entry): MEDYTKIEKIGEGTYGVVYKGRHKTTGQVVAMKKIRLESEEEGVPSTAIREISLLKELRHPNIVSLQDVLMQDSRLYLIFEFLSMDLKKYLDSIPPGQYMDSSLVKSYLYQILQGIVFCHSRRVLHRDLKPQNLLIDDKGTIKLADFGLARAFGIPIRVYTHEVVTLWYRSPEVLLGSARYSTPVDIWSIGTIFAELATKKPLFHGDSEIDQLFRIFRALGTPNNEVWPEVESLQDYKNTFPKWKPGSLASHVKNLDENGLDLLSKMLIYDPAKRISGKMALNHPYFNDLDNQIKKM

CDK2 = CDK2 (Homo sapiens, UniProt P24941)
ERN1 = ERN1 (Homo sapiens, UniProt O75460)
Sequence of ERN1 (O75460 whole entry): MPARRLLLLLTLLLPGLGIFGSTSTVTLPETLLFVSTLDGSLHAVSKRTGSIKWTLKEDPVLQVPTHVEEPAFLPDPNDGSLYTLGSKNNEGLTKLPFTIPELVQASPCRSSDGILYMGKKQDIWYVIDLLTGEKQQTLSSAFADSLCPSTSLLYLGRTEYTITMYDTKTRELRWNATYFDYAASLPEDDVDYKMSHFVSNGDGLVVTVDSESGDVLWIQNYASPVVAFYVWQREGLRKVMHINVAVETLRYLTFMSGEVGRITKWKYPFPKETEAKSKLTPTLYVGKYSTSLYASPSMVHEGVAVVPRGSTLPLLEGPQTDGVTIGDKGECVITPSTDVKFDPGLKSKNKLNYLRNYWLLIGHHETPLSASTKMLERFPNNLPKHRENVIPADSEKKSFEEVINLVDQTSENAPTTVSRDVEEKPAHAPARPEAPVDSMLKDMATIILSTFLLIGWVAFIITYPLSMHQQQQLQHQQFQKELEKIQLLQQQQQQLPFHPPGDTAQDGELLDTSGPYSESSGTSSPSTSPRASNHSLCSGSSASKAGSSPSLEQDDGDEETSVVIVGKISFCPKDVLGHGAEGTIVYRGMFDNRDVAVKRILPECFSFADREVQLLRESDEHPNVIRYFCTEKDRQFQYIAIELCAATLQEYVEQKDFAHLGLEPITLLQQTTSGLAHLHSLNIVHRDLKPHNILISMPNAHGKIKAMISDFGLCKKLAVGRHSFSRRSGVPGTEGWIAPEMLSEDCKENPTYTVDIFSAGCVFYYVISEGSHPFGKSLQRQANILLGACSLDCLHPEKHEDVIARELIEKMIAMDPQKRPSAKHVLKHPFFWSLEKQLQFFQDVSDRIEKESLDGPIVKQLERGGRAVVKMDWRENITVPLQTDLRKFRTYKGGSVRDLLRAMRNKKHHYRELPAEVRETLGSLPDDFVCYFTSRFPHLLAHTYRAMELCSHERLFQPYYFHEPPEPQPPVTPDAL

IRAK1 = IRAK1 (Homo sapiens, UniProt P51617)
Sequence of IRAK1 (P51617 whole entry): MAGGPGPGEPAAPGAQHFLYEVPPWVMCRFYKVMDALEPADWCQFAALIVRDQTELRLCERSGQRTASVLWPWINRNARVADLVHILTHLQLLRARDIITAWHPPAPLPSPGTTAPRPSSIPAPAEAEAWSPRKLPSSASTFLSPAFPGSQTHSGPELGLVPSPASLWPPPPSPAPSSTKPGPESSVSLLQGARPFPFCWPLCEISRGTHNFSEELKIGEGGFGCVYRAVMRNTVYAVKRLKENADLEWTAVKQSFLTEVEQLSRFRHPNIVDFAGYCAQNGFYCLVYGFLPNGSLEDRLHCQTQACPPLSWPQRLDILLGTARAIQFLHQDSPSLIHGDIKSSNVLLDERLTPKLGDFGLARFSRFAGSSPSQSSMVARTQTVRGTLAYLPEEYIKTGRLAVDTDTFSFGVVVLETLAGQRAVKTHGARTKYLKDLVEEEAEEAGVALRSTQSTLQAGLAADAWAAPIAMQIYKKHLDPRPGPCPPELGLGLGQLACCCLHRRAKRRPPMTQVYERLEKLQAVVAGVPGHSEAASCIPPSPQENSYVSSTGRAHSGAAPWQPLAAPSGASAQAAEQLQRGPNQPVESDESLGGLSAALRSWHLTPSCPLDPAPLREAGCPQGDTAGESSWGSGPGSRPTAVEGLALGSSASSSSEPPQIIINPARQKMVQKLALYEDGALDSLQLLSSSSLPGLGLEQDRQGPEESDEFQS

MAP3K1 = MAP3K1 (Homo sapiens, UniProt Q13233)
PIP4K2C = target: T2, PIP4K2C (Homo sapiens, UniProt Q8TBX8)
T2 sequence (Q8TBX8 1-421): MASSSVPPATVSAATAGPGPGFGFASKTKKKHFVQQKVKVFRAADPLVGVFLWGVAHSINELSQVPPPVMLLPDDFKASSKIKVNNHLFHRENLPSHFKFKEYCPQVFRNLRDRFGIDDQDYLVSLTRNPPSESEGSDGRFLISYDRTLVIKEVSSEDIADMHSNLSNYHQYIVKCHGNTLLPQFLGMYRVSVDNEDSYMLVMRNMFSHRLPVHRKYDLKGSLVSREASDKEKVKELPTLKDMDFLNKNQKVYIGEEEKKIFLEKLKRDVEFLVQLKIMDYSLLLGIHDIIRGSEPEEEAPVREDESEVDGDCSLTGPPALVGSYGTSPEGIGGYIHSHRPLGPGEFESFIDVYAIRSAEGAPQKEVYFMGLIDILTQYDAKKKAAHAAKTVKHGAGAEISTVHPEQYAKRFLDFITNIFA

Structure (SMILES)	Kd (CSNK2A2)	Kd (AAK1)	Kd (BMPR2)	Kd (BTK)	Kd (CDC2)	Kd (CDK2)	Kd (ERN1)	Kd (IRAK1)	Kd (MAP3K1)	Kd (PIP4K2C)
CN(C)CC(O)COc1ccc(Nc2ncc([N+](=O)[O-])c(Nc3ccccc3O)n2)cc1.O=C(O)C(F)(F)F (stereo not shown) [TCMDC-141399]	33.3 nM and 26.8 nM	–	–	–	–	–	–	–	–	–
CN1CCN(c2ccc(Nc3ncc(C#N)c(Nc4ccccc4C(N)=O)n3)cc2)CC1.Cl [TCMDC-134116]	–	36.7 nM	3470 nM and 4750 nM	207 nM and 231 nM	1210 nM	135 nM and 131 nM	127 nM	92.9 nM and 81.3 nM	681 nM	691 nM and 713 nM
